From PMC8175350, “Drug repurposing screens identify chemical entities for the development of COVID-19 interventions” (Nature Communications, 2021)
Read-outs that look alike come from different tables or passages of the source.

What was measured:
Calu-3 cells [1] = assay: cells; conditions: Homo sapiens; for Emax: Calu-3, 48 h, read-out: Calu-3 cell count Sinf Average
[2] = Uninfected Calu-3 48 h Cell-Titer Glo cytotoxicity counter screen; conditions: human, uninfected Calu-3 cells, Calu-3 uninfected cytotoxicity CC50 GeoMean, detail block
Calu-3 cells [3] = assay: as above; conditions: curve plateau at infinite concentration
[4] = HepG2 72 h CellTiter-Glo cytotoxicity; conditions: human, HepG2 cells
HepG2 = HepG2 72 h CellTiter-Glo cytotoxicity; conditions: 72 h
HeLa-ACE2 cells [5] = assay: cells; assay type: cell-based, human; conditions: Homo sapiens, HeLa-ACE2; read-out: HeLa-ACE2 TOA cell count EC50 GeoMean
[6] = HEK293T 72 h CellTiter-Glo cytotoxicity; conditions: human, HEK293T cells
HEK293T = HEK293T 72 h CellTiter-Glo cytotoxicity; conditions: 72 h
SARS-CoV-2 [7] = assay: microbe, parasite or virus in culture; assay type: cell-based; conditions: for Emax: Severe acute respiratory syndrome coronavirus 2, Calu-3, 48 h, read-out: Calu-3 CoV-2 Sinf Average
SARS-CoV-2 [8] = assay: microbe, parasite or virus in culture; assay type: cell-based; conditions: for Emax: Severe acute respiratory syndrome coronavirus 2, HeLa-ACE2, 10 h, curve plateau at infinite concentration, read-out: HeLa-ACE2 TOA CoV-2 Sinf Average; for EC50: Severe acute respiratory syndrome coronavirus 2, HeLa-ACE2, detail block, read-out: HeLa-ACE2 TOA CoV-2 EC50 GeoMean
[9] = Uninfected HeLa-ACE2 24 h live/dead cytotoxicity counter screen; assay type: cell-based, human; conditions: human, uninfected HeLa-ACE2 cells
HeLa-ACE2 cells [10] = assay: as above; assay type: cell-based, human; conditions: curve plateau at infinite concentration
HeLa-ACE2 cells [11] = assay: cells; conditions: Homo sapiens
SARS-CoV-2 [12] = assay: microbe, parasite or virus in culture; assay type: cell-based; conditions: for Emax: Severe acute respiratory syndrome coronavirus 2, HeLa-ACE2, 24 h, curve plateau at infinite concentration, read-out: HeLa-ACE2 CoV-2 Sinf Average
in vitro = conditions: human
SARS-CoV-2 [13] = assay type: cell-based; conditions: HeLa-ACE2
[14] = human, cited from earlier work; for Approx. t1/2: ref [33]-[49]
[15] = Calu-3, read-out: Calu-3 cell count EC50 GeoMean, detail block
[16] = Severe acute respiratory syndrome coronavirus 2, Calu-3, detail block, read-out: Calu-3 CoV-2 EC50 GeoMean
[17] = detail block, read-out: HeLa-ACE2 uninfected cytotoxicity CC50 GeoMean
[18] = HeLa-ACE2, read-out: HeLa-ACE2 cell count EC50 GeoMean, detail block
[19] = Severe acute respiratory syndrome coronavirus 2, HeLa-ACE2, detail block, read-out: HeLa-ACE2 CoV-2 EC50 GeoMean
[20] = Severe acute respiratory syndrome coronavirus 2, Calu-3, reconfirmed hits, read-out: Calu-3 SARS-CoV-2 EC50
[21] = reconfirmed hits, read-out: HeLa-ACE2 Uninf. cells CC50
[22] = Severe acute respiratory syndrome coronavirus 2, HeLa-ACE2, reconfirmed hits, read-out: HeLa-ACE2 SARS-CoV-2 EC50

Compound | Emax (Calu-3 cells [1]) | EC50 (Calu-3 cells [1]; [15]) | CC50 at 48 h [2] | Calu-3 uninfected cytotoxicity Sinf Average (Calu-3 cells [3]) | CC50 at 72 h [4] | HepG2 72-hour cytotoxicity Sinf Average (HepG2) | EC50 (HeLa-ACE2 cells [5]) | CC50 at 72 h [6] | HEK293T 72-hour cytotoxicty Sinf Average (HEK293T) | EC50 (SARS-CoV-2 [7]; [16]) | Emax (SARS-CoV-2 [8]) | EC50 (SARS-CoV-2 [8]) | CC50 at 24 h [9, 17] | HeLa-ACE2 uninfected cytotoxicity Sinf Average (HeLa-ACE2 cells [10]) | EC50 (HeLa-ACE2 cells [11]; [18]) | Emax (SARS-CoV-2 [12]) | EC50 (SARS-CoV-2 [12]; [19]) | Approx. t1/2 [14] | EC50 (SARS-CoV-2 [7]; [20]) | CC50 at 24 h [9, 21] | further results
CCCCCCOC(=O)NC(=N)c1ccc(NCc2nc3cc(C(=O)N(CCC(=O)OCC)c4ccccn4)ccc3n2C)cc1 [Dabigatran etexilate mesilate] | 100% | > 9.98 µM | > 29.9 µM | -100% | 13.1 µM | -96% | > 9.59 µM | 8.53 µM | -101% | > 9980 nM | 100% | > 9.51 µM | > 26.5 µM | -97% | > 9.59 µM | 100% | 4.08 µM | – | – | – | TOA:HeLa-ACE2 EC50 Ratio (SARS-CoV-2 [8]; TOA EC50 / HeLa-ACE2 SARS-CoV-2 EC50): 2.329; HeLa-ACE2 SI (SARS-CoV-2 [12]): > 6.50
COC(=O)C1=C(C)NC(C)=C(C(=O)OCCN2CCN(C(c3ccccc3)c3ccccc3)CC2)C1c1cccc([N+](=O)[O-])c1 (stereo not shown) [Manidipine] | – | – | – | – | – | – | – | – | – | – | – | – | – | – | – | – | – | 3 h | 5480 nM | > 17.1 µM | CC50 at 48 h (in vitro; Calu-3 Uninf. cells CC50 (µM)): > 30 µM; Synergy score with remdesivir (δ) (SARS-CoV-2 [13]): −4.73; Cmax ([14]; in vivo, po): 10 nM; EC50 (SARS-CoV-2 [12]; [22]): 6.89 µM
C=Cc1cc(C(=O)Nc2ccc(C(=N)N)cc2)c(-c2ccc(C(=O)NCC3CC3)nc2C(=O)O)cc1OC [Avoralstat] | 91% | – | – | – | – | – | – | – | – | – | – | – | – | – | – | – | – | 14 h | 387 nM | > 40 µM | EC50 (Calu-3 cells [1]; Calu-3, read-out: Calu-3 cell count EC50 GeoMean, unrounded geometric mean): 0.57 µM; CC50 (in vitro; Calu-3 Uninf. cells CC50 (µM), reconfirmed hits): > 30 µM; CC50 (in vitro; Calu-3 uninfected cytotoxicity CC50 GeoMean, unrounded geometric mean): > 29.9 µM; Cmax ([14]; read-out: Approx. Cmax, oral, ref [36],[37],[42],[43] as in column Refs.): 364 nM; Emax (SARS-CoV-2 [7]; curve-fit effect at infinite concentration, average): 88%; EC50 (SARS-CoV-2 [7]; Severe acute respiratory syndrome coronavirus 2, Calu-3, unrounded geometric mean, read-out: Calu-3 CoV-2 EC50 GeoMean): 387 nM; CC50 at 24 h ([9]; unrounded geometric mean, read-out: HeLa-ACE2 uninfected cytotoxicity CC50 GeoMean): > 39.8 µM; EC50 (HeLa-ACE2 cells [11]; HeLa-ACE2, read-out: HeLa-ACE2 cell count EC50 GeoMean, unrounded geometric mean): > 9.59 µM; EC50 (SARS-CoV-2 [12]; [22]): > 9.6 µM; EC50 (SARS-CoV-2 [12]; Severe acute respiratory syndrome coronavirus 2, HeLa-ACE2, unrounded geometric mean, read-out: HeLa-ACE2 CoV-2 EC50 GeoMean): > 9.59 µM
OCCN1CCN(CC/C=C2/c3ccccc3Sc3ccc(Cl)cc32)CC1 [Zuclopenthixol] | – | > 9.98 µM | 9.6 µM | -100% | 12.5 µM | -100% | > 9.59 µM | 18.6 µM | -100% | > 9060 nM | 99% | 6.1 µM | > 16.8 µM | -100% | > 9.59 µM | 100% | 2.08 µM | – | – | – | Emax (SARS-CoV-2 [7]; curve plateau at infinite concentration): 100%; Calu-3 SI (SARS-CoV-2 [7]; selectivity index, uninfected Calu-3 CC50 / Calu-3 SARS-CoV-2 EC50): 1.06; TOA:HeLa-ACE2 EC50 Ratio (SARS-CoV-2 [8]): 2.929; Emax (HeLa-ACE2 cells [11]; HeLa-ACE2, 24 h, read-out: HeLa-ACE2 cell count Sinf Average): 100%; HeLa-ACE2 SI (SARS-CoV-2 [12]; selectivity index, uninfected HeLa-ACE2 CC50 / SARS-CoV-2 EC50): > 8.08
